# Measurements reported in patent US20110186457A1, “NOVEL SINGLE UNIT CARBAPENEM AMINOGLYCOSIDE FORMULATIONS” (priority 2008, published 2011).
# “And” between values parts separate entries of the source, which are not always exact repeats. Identical values can stand only once. Like-named read-outs stand apart in the source and are kept apart here.
# Key:
# [1] = system: renal tissue of Mus musculus mice; assay: Oxidative stress and kidney toxicity markers in renal tissue after repeated antibiotic administration to mice; type: in vivo
# S. aureus (737 MTCC) = assay: Zone of inhibition; type: cell-based; design: unit not given here
# Source text: (§1) Where X and Y are respective additive agents mixed in the formulation with water for injection.
# E. coli (1687 MTCC) = assay: Zone of inhibition; type: cell-based; design: unit not given here
# Source text: as §1
# P. vulgaris (426 MTCC) = assay: Zone of inhibition; type: cell-based; design: unit not given here
# Source text: as §1
# C. braakii (2690 MTCC) = assay: Zone of inhibition; type: cell-based; design: unit not given here
# Source text: as §1
# A. baumannii (1425 MTCC) = assay: Zone of inhibition; type: cell-based; design: unit not given beside the values
# Source text: as §1
# [2] = system: K. pneumoniae (10031 ATCC); assay: Zone of inhibition; type: cell-based; design: unit not given beside the values
# Source text: as §1
# [3] = system: P. aeruginosa (1688 MTCC); assay: Zone of inhibition; type: cell-based; design: unit not given beside the values
# Source text: as §1
# B. subtilis MTCC 736 = assay: In-vitro microbial efficacy (MIC); type: cell-based
# P. vulgaris MTCC 426 = assay: In-vitro microbial efficacy (MIC); type: cell-based
# C. braakii MTCC 2690 = assay: In-vitro microbial efficacy (MIC); type: cell-based
# P. aeruginosa MTCC 1688 = assay: In-vitro microbial efficacy (MIC); type: cell-based
# N. mucosa MTCC 1722 = assay: In-vitro microbial efficacy (MIC); type: cell-based
# M. smegmatis MTCC 995 = assay: In-vitro microbial efficacy (MIC); type: cell-based
# [4] = system: K. pneumoniae 10031(ATCC); assay: In-vitro microbial efficacy (MIC); type: cell-based
# A. baumanii MTCC 1425 = assay: In-vitro microbial efficacy (MIC); type: cell-based
# MRSA = assay: In-vitro microbial efficacy (MIC); type: cell-based
# E. coli MTCC 1687 = assay: In-vitro microbial efficacy (MIC); type: cell-based
# E. cloacae MTCC 509 = assay: In-vitro microbial efficacy (MIC); type: cell-based
# S. aureus MTCC 737 = assay: In-vitro microbial efficacy (MIC); type: cell-based
smiles,measurement,setting,value
NCC[C@H](O)C(=O)N[C@@H]1C[C@H](N)[C@@H](O[C@H]2O[C@H](CN)[C@@H](O)[C@H](O)[C@H]2O)[C@H](O)[C@H]1O[C@H]1O[C@H](CO)[C@@H](O)[C@H](N)[C@H]1O [Amikacin],Catalase activity in renal tissue,"[1]; mouse, in vivo",decrease
same,Glutathione reductase activity in renal tissue,"[1]; mouse, in vivo",decrease
same,MDA activity in renal tissue,"[1]; mouse, in vivo",increase
same,SOD activity in renal tissue,"[1]; mouse, in vivo",decrease
C[C@@H](O)[C@H]1C(=O)N2C(C(=O)O)=C(S[C@@H]3CN[C@H](C(=O)Nc4cccc(C(=O)O)c4)C3)[C@H](C)[C@H]12 [Ertapenem],Zone of Inhibition,S. aureus (737 MTCC); drug concentration 0.005 mcg,9.44
same,Zone of Inhibition,S. aureus (737 MTCC); drug concentration 0.05 mcg,14.55
same,Zone of Inhibition,S. aureus (737 MTCC); drug concentration 0.5 mcg,21.33
same,Zone of Inhibition,E. coli (1687 MTCC); drug concentration 0.005 mcg,10.10
same,Zone of Inhibition,E. coli (1687 MTCC); drug concentration 0.05 mcg,15.49
same,Zone of Inhibition,E. coli (1687 MTCC); drug concentration 0.5 mcg,21.45
same,Zone of Inhibition,E. coli (1687 MTCC); drug concentration 1.0 mcg,23.39
same,Zone of Inhibition,P. vulgaris (426 MTCC); drug concentration 0.005 mcg,9.54
same,Zone of Inhibition,P. vulgaris (426 MTCC); drug concentration 0.05 mcg,16.74
same,Zone of Inhibition,P. vulgaris (426 MTCC); drug concentration 0.5 mcg,18.50
same,Zone of Inhibition,C. braakii (2690 MTCC); drug concentration 0.005 mcg,10.52
same,Zone of Inhibition,C. braakii (2690 MTCC); drug concentration 0.05 mcg,18.95
same,Zone of Inhibition,C. braakii (2690 MTCC); drug concentration 0.5 mcg,27.88
same,Zone of Inhibition,A. baumannii (1425 MTCC); drug concentration 0.005 mcg,Nil
same,Zone of Inhibition,A. baumannii (1425 MTCC); drug concentration 0.05 mcg,13.37
same,Zone of Inhibition,A. baumannii (1425 MTCC); drug concentration 0.5 mcg,18.25
same,Zone of Inhibition,[2]; drug concentration 0.005 mcg,Nil
same,Zone of Inhibition,[2]; drug concentration 0.05 mcg,Nil
same,Zone of Inhibition,[2]; drug concentration 0.5 mcg,15.90
same,Zone of Inhibition,[3]; drug concentration 0.005 mcg,Nil
same,Zone of Inhibition,[3]; drug concentration 0.05 mcg,Nil
same,Zone of Inhibition,[3]; drug concentration 0.5 mcg,Nil
CCN[C@@H]1C[C@H](N)[C@@H](O[C@H]2O[C@H](CN)CC[C@H]2N)[C@H](O)[C@H]1O[C@H]1OC[C@](C)(O)[C@H](NC)[C@H]1O [Etimicin],MIC,B. subtilis MTCC 736,8 µg/mL
same,MIC,P. vulgaris MTCC 426,4 µg/mL
same,Creatnine level in renal tissue,"[1]; Mus musculus mice, repeated administration for 7 days consecutively (FIG. 5)",significantly decreased
same,SOD activity in renal tissue,"[1]; mice, after administration of antibiotic (FIG. 1)",decrease
same,Catalase activity in renal tissue,"[1]; mice, after administration of antibiotic (FIG. 2)",decrease
same,MDA activity in renal tissue,"[1]; mice, after administration of antibiotic (FIG. 3)",increase
same,Glutathione reductase activity in renal tissue,"[1]; mice, after administration of antibiotic (FIG. 4)",decrease
same,MIC,C. braakii MTCC 2690,2 µg/mL
same,MIC,P. aeruginosa MTCC 1688,8 µg/mL
same,Zone of Inhibition,S. aureus (737 MTCC); drug concentration 0.005 mcg,Nil
same,Zone of Inhibition,S. aureus (737 MTCC); drug concentration 0.05 mcg,11.15 and 10.12
same,Zone of Inhibition,S. aureus (737 MTCC); drug concentration 0.5 mcg,17.50 and 16.65
same,Zone of Inhibition,E. coli (1687 MTCC); drug concentration 0.005 mcg,Nil
same,Zone of Inhibition,E. coli (1687 MTCC); drug concentration 0.05 mcg,9.42 and 9.31
same,Zone of Inhibition,E. coli (1687 MTCC); drug concentration 0.5 mcg,16.50 and 15.70
same,Zone of Inhibition,E. coli (1687 MTCC); drug concentration 1.0 mcg,17.57
same,Zone of Inhibition,P. vulgaris (426 MTCC); drug concentration 0.005 mcg,Nil
same,Zone of Inhibition,P. vulgaris (426 MTCC); drug concentration 0.05 mcg,Nil
same,Zone of Inhibition,P. vulgaris (426 MTCC); drug concentration 0.5 mcg,15.19 and 13.97
same,Zone of Inhibition,C. braakii (2690 MTCC); drug concentration 0.005 mcg,Nil
same,Zone of Inhibition,C. braakii (2690 MTCC); drug concentration 0.05 mcg,Nil
same,Zone of Inhibition,C. braakii (2690 MTCC); drug concentration 0.5 mcg,18.70 and 19.10
same,Zone of Inhibition,A. baumannii (1425 MTCC); drug concentration 0.005 mcg,Nil
same,Zone of Inhibition,A. baumannii (1425 MTCC); drug concentration 0.5 mcg,13.5 and 12.88
same,Zone of Inhibition,[2]; drug concentration 0.005 mcg,nil and Nil
same,Zone of Inhibition,[2]; drug concentration 0.05 mcg,nil and Nil
same,Zone of Inhibition,[2]; drug concentration 0.5 mcg,16.64 and 16.50
same,Zone of Inhibition,[3]; drug concentration 0.005 mcg,Nil
same,Zone of Inhibition,[3]; drug concentration 0.05 mcg,Nil
same,Zone of Inhibition,[3]; drug concentration 0.5 mcg,12.49 and 12.60
same,MIC,N. mucosa MTCC 1722,1 µg/mL
same,MIC,M. smegmatis MTCC 995,2 µg/mL
same,MIC,[4],8 µg/mL
same,MIC,A. baumanii MTCC 1425,2 µg/mL
same,MIC,MRSA,4 µg/mL
same,MIC,E. coli MTCC 1687,0.125 µg/mL
same,MIC,E. cloacae MTCC 509,2 µg/mL
same,MIC,S. aureus MTCC 737,8 µg/mL
C[C@@H](O)[C@H]1C(=O)N2C(C(=O)O)=C(S[C@@H]3CN[C@H](C(=O)N(C)C)C3)[C@H](C)[C@H]12 [Meropenem],MIC,"B. subtilis MTCC 736; Bacillus subtilis, MTCC736, read-out: MIC",2 µg/mL
same,MIC,"P. vulgaris MTCC 426; Proteus vulgaris, MTCC426, read-out: MIC",0.0625 µg/mL
same,Catalase activity in renal tissue,"[1]; mouse, in vivo",decrease
same,Glutathione reductase activity in renal tissue,"[1]; mouse, in vivo",decrease
same,MDA activity in renal tissue,"[1]; mouse, in vivo",increase
same,SOD activity in renal tissue,"[1]; mouse, in vivo",decrease
same,MIC,"C. braakii MTCC 2690; Citrobacter braakii, MTCC2690, read-out: MIC",0.25 µg/mL
same,MIC,"P. aeruginosa MTCC 1688; Pseudomonas aeruginosa, MTCC1688, read-out: MIC",2 µg/mL
same,Zone of Inhibition,S. aureus (737 MTCC); drug concentration 0.005 mcg,11.45
same,Zone of Inhibition,S. aureus (737 MTCC); drug concentration 0.05 mcg,16.29
same,Zone of Inhibition,S. aureus (737 MTCC); drug concentration 0.5 mcg,22.76
same,Zone of Inhibition,E. coli (1687 MTCC); drug concentration 0.005 mcg,8.88
same,Zone of Inhibition,E. coli (1687 MTCC); drug concentration 0.05 mcg,15.70
same,Zone of Inhibition,E. coli (1687 MTCC); drug concentration 0.5 mcg,22.97
same,Zone of Inhibition,P. vulgaris (426 MTCC); drug concentration 0.005 mcg,10.84
same,Zone of Inhibition,P. vulgaris (426 MTCC); drug concentration 0.05 mcg,18.01
same,Zone of Inhibition,P. vulgaris (426 MTCC); drug concentration 0.5 mcg,21.32
same,Zone of Inhibition,C. braakii (2690 MTCC); drug concentration 0.005 mcg,9.35
same,Zone of Inhibition,C. braakii (2690 MTCC); drug concentration 0.05 mcg,23.35
same,Zone of Inhibition,C. braakii (2690 MTCC); drug concentration 0.5 mcg,28.60
same,Zone of Inhibition,A. baumannii (1425 MTCC); drug concentration 0.005 mcg,Nil
same,Zone of Inhibition,A. baumannii (1425 MTCC); drug concentration 0.05 mcg,14.50
same,Zone of Inhibition,A. baumannii (1425 MTCC); drug concentration 0.5 mcg,19.81
same,Zone of Inhibition,[2]; drug concentration 0.005 mcg,Nil
same,Zone of Inhibition,[2]; drug concentration 0.05 mcg,14.36
same,Zone of Inhibition,[2]; drug concentration 0.5 mcg,23.87
same,Zone of Inhibition,[3]; drug concentration 0.005 mcg,Nil
same,Zone of Inhibition,[3]; drug concentration 0.05 mcg,13.64
same,Zone of Inhibition,[3]; drug concentration 0.5 mcg,21.85
same,MIC,N. mucosa MTCC 1722; read-out: MIC,0.125 µg/mL
same,MIC,"M. smegmatis MTCC 995; Mycolicibacterium smegmatis, MTCC995, read-out: MIC",0.25 µg/mL
same,MIC,"[4]; Klebsiella pneumoniae, read-out: MIC",1 µg/mL
same,MIC,"A. baumanii MTCC 1425; Acinetobacter baumannii, MTCC1425, read-out: MIC",0.125 µg/mL
same,MIC,"MRSA; Staphylococcus aureus, read-out: MIC",0.5 µg/mL
same,MIC,"E. coli MTCC 1687; Escherichia coli, MTCC1687, read-out: MIC",0.0625 µg/mL
same,MIC,"E. cloacae MTCC 509; Enterobacter cloacae, MTCC509, read-out: MIC",0.125 µg/mL
same,MIC,"S. aureus MTCC 737; Staphylococcus aureus, MTCC737, read-out: MIC",0.5 µg/mL
NC[C@H]1O[C@H](O[C@H]2[C@H](O)[C@@H](O[C@H]3O[C@H](CO)[C@@H](O)[C@H](N)[C@H]3O)[C@H](N)C[C@@H]2N)[C@H](N)C[C@@H]1O [Tobramycin],Catalase activity in renal tissue,"[1]; mouse, in vivo",decrease
same,Glutathione reductase activity in renal tissue,"[1]; mouse, in vivo",decrease
same,MDA activity in renal tissue,"[1]; mouse, in vivo",increase
same,SOD activity in renal tissue,"[1]; mouse, in vivo",decrease
